Experimental findings from patent US10077273B2, “SHMT inhibitors” (The Trustees of Princeton University, priority 2016, dated 2018) are described below.

A word on the pIC50: it is −log10 of the IC50, conventionally taken in molar units. What is called logP is the decadic logarithm of the partition coefficient of the neutral form, usually between octanol and water. One may read the IC80 as the concentration at which the effect reaches the 80% level. Read a low IC80 as greater potency. What is called IC70 is the concentration at which the effect reaches the 70% level. Read a high IC70 as weaker potency.

Molecules are shown by their SMILES. pIC50: −log10 of the molar value. Read-outs that look alike come from different tables or passages of the source. A value given as a limit tells only on which side of the number the result lay.

Data set [1] relates to human colon carcinoma HCT-116 WT cells. The experiment in a line: Cell growth assay (resazurin), HCT-116 wild-type. It is filed as cell-based. The conditions noted are these: for pIC50: Homo sapiens, HCT-116, Table 2. As to the method:
The described cell lines for Examples 8 and 9 are cultured in 96-well plates in Dulbecco's modified eagle media (DMEM) without pyruvate (CELLGRO) with 10% dialysed fetal bovine serum (Invitrogen) in 5% CO2 at 37° C. Approximately 2,500 cells are plated in each well in 90 uL of media. After 24 hours cells are treated with various concentrations of inhibitor (time=0 hours), with or without formate. Growth was assessed at multiple time points (time=0, 24, 48, 72 hours) through measurement of fluorescence at 595 nm (excitation at 535 nm) on a BioTek micro titer plate reader after incubation with resazurin (0.01 mg/mL for 1.5 hours). IC50 curves are generated from percent inhibition of growth at 72 hours. […]
In general terms: The colour change of resazurin is a common sign of viable cells or microbes.

Data set [2] concerns HCT cells. The experiment in a line: Formate rescue assay in cell growth. It counts as cell-based, human. The conditions noted are these: Table 2. The protocol:
Application of formate is shown to rescue the anti-growth effect in certain human cells treated with SHMT inhibitors in a cell growth assay.
The described cell lines for Examples 8 and 9 are cultured in 96-well plates in Dulbecco's modified eagle media (DMEM) without pyruvate (CELLGRO) with 10% dialysed fetal bovine serum (Invitrogen) in 5% CO2 at 37° C. Approximately 2,500 cells are plated in each well in 90 uL of media. After 24 hours cells are treated with various concentrations of inhibitor (time=0 hours), with or without formate. Growth was assessed at multiple time points (time=0, 24, 48, 72 hours) through measurement of fluorescence at 595 nm (excitation at 535 nm) on a BioTek micro titer plate reader after incubation with resazurin (0.01 mg/mL for 1.5 hours). IC50 curves are generated from percent inhibition of growth at 72 hours.

For data set [3], the target named is human SHMT2 (Homo sapiens, UniProt P34897).
Chain of human SHMT2 (P34897 30-504 limits assumed): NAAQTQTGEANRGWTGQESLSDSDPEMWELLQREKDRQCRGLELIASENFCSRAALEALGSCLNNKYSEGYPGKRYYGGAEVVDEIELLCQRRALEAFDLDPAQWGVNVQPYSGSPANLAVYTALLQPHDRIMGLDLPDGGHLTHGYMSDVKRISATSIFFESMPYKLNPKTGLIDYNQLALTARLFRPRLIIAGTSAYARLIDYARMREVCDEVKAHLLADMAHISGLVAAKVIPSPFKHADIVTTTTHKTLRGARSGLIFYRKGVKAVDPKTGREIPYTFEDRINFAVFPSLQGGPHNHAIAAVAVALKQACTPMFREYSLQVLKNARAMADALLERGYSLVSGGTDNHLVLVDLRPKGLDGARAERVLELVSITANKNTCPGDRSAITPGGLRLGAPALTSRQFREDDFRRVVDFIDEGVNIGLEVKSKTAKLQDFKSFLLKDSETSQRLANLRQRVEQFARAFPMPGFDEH
Protocol: (§2) For the SHMT1 and SHMT2 in vitro enzymatic assays, the rate of 5,10-methylene tetrahydrofolate formation catalyzed by SHMT1/2 was indirectly evaluated by coupling with excess MTHFD2, which converts NAD+ to NADH allowing for reaction monitoring by absorption at 340 nm. […] Inhibition of initial reaction velocity was determined by adding various inhibitors at different concentrations and monitored as described. IC50 may be calculated based on this assay.
The nature of data set [4]: LogP value. The following applies: Table 2; head prints (μM). It counts as physicochemical.
Data set [5] relates to HCT-116 ΔSHMT2 cells. The experiment in a line: Cell growth assay, HCT-116 SHMT2 deletion (knock-out) cells. It is filed as cell-based, human. The following applies: FIG. 3B; increased potency versus native cells. The protocol: Inhibitors of SHMT were evaluated in various cancer cell lines, in the presence and absence of mutations in mitochondrial folate pathway enzymes.
To analyze the effects of inhibition on each isoform independently, SHMT1 and SHMT2 HCT-116 deletion clones were used.

A short description of data set [6]: Liver microsome assay (metabolic stability). The conditions noted are these: male, CD-1, mouse, pooled liver microsomes. It is filed as in vitro ADME. The protocol: The following master solution was prepared before compound addition:
Two separate experiments were performed as follows: a) With Cofactors (NADPH and UDPGA): 40 μL of 10 mM NADPH and 40 μL of 20 mM UDPGA were added to the incubations. The final concentrations of microsomes, NADPH and UDPGA were 0.5 mg/mL, 1 mM and 2 mM, respectively. b) Without Cofactors (NADPH and UDPGA): 10 μL of 20 mg/mL liver microsomes and 80 μL of ultra-pure water were added to the incubations. The final concentration of microsomes was 0.5 mg/mL. The mixture was pre-warmed at 37° C. for 5 minutes.
The reaction was started with the addition of 4 μL of 200 μM control compound or test compound solution. Verapamil was used as positive control in this study. The final concentration of test compound or control compound was 2 μM. The incubation solution was incubated in water bath at 37° C. Aliquots of 50 μL were taken from the reaction solution at 0.5, 5, 15, 30, 45 and 60 minutes. The reaction was stopped by the addition of 5 volumes of cold acetonitrile with IS (100 nM alprazolam, 200 nM caffeine and 100 nM tolbutamide). Samples were centrifuged at 3,220 g for 40 minutes. Aliquot of 100 μL of the supernatant was mixed with 100 μL of ultra-pure H2O and then used for LC-MS/MS analysis. The in vitro half-life (in vitro t1/2) was determined from the slope value of the LC-MS signal of the test compound.

Data set [7] concerns Jurkat cells. The experiment in a line: Cellular growth assay, Jurkat. It counts as cell-based. The protocol: (§1) Jurkat, REH, Farage, Daudi, Su-DHL2, Su-DHL-4, Su-DHL-6 cells were purchased from ATCC. Cells were subcultured in RPMI supplemented with 10% FBS. For growth assays, cells were seeded at 2×10^5/mL in 5 mL growth media in 12.5 cm flasks. Media was supplemented with sodium formate (1 mM), additional glycine (100 mg/L) and an SHMTi (5 uM). Cells were sampled daily, and counted using trypan blue staining and light microscopy.

Data set [8] has as its system Su-DHL-2 cells. The experiment in a line: Cellular growth assay, Su-DHL-2. It is filed as cell-based. The protocol: as §1
For data set [9], the target named is human SHMT1 (Homo sapiens, UniProt P34896). The following applies: read-out: SHMT1 IC50; Table 3.
Chain of human SHMT1 (P34896 2-483 limits assumed): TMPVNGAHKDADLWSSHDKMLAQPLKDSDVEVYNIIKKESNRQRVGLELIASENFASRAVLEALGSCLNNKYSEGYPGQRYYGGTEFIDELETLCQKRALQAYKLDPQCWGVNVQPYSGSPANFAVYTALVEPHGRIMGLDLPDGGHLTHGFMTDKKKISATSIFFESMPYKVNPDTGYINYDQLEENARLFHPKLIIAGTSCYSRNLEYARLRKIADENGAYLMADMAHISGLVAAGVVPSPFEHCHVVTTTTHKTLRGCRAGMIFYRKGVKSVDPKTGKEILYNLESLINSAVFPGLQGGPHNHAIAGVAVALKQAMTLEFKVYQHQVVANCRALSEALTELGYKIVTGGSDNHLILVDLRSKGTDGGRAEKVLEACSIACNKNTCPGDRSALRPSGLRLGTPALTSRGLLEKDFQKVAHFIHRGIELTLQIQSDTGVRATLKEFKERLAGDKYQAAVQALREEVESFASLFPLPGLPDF
Protocol: as §2
The test system of data set [10] is Su-DHL4 cells. The experiment in a line: Apoptosis by Annexin V surface staining, flow cytometry. It counts as cell-based. The text has this:
In contrast, cell growth is further decreased in Su-DHL4 cells by addition of formate. This can be further exacerbated by removal of glycine from the media. […] Using flow cytometry, apoptosis of Su-DHL4 cells were studied with AnnexinV surface staining (FIGS. 12D and 12E).
(In general: Flow cytometry measures light scatter and fluorescence of single cells or particles in a stream.)

In data set [11] the test system is Su-DHL4 cells. The experiment in a line: Cellular growth, SU-DHL4. It counts as cell-based. The following applies: SU-DHL4, FIG. 12C legend. The protocol:
as §1

In data set [12] the test system is human pancreatic cell line 8988T. The experiment in a line: Growth of pancreatic cancer cell line 8988T. It is filed as cell-based. The following applies: 8988T cells.
[13] abbreviates: replicate 1, read-out: CLint (replicate 1).
[14] abbreviates: replicate 2, read-out: CLint (replicate 2).

As to `Cc1n[nH]c2c1C(c1cc(C#N)cc(C#CCCC(=O)O)c1)(C(C)C)C(C#N)=C(N)O2` (stereo not shown) [Compound 68], the pIC50 in [1] was 4.00. Also, in data set [2], the “% formate rescue” value worked out at 106.02%.

As for `Cc1n[nH]c2c1C(c1cc(C#CCCC(=O)O)cc(C(F)(F)F)c1)(C(C)C)C(C#N)=C(N)O2` (stereo not shown) [Compound 4], the pIC50 was 9.77 in data set [3] (read-out: SCHMT2 IC50, Table 2) and 4.82 in data set [1]. Also, the “% formate rescue” value in [2] came to 93.35%.

With `Cc1n[nH]c2c1C(c1cc(C#CCCC(=O)N[C@H](CCC(=O)O)C(=O)O)cc(C(F)(F)F)c1)(C(C)C)C(C#N)=C(N)O2` (stereo partly shown) [Compound 70], the log partition coefficient (logP) in data set [4] stood at 2.49. Moreover, the pIC50 in data set [1] was 4.00. In addition, the “% formate rescue” value in data set [2] turned out to be 94.89%.

`Cc1n[nH]c2c1C(c1cc(C#CCCCN)cc(C(F)(F)F)c1)(C(C)C)C(C#N)=C(N)O2` (stereo not shown) [Compound 8] gave a pIC50 in data set [1] of 5.69. The “% formate rescue” value in data set [2] is listed as 80.65%.

Turning to `Cc1n[nH]c2c1C(c1cc(C#CCCCO)cc(C(F)(F)F)c1)(C(C)C)C(C#N)=C(N)O2` (stereo not shown) [Compound 61, 6-amino-4-(3-(5-hydroxypent-1-yn-1-yl)-5-(trifluoromethyl)phenyl)-4-isopropyl-3-methyl-1,4-dihydropyrano[2,3-c]pyrazole-5-carbonitrile], the “growth of SHMT2 knock-out HCT116 cells” value in data set [5] is listed as “inhibited growth”. For the same compound, in data set [1] (native HCT116, FIG. 3A), the “growth (proliferation) of HCT116 cells” value was “inhibited growth”.

As to `Cc1n[nH]c2c1C(c1cc(Br)cc(C(F)(F)F)c1)(C(F)(F)F)C(C#N)=C(N)O2` (stereo not shown), the figures for the microsomal CLint at 2 μM in data set [6] (setting [13]) and in data set [6] (setting [14]) were 87.8 µL/min/mg and 71.5 µL/min/mg, respectively.

Regarding `Cc1n[nH]c2c1[C@@](c1cc(C(F)(F)F)cc(C(F)(F)F)c1)(C(C)C)C(C#N)=C(N)O2` [HK-16 (PK-2)], the “growth as assessed by cell count” value in data set [7] (5 μM) was “inhibited”; in data set [8] (Su-DHL-2, 5 μM), “inhibited”. Besides, the “rescue of growth inhibition by formate” value in data set [7] (5 μM + 1 mM sodium formate) is on record as “significantly rescued”; in [8] (Su-DHL-2, 5 μM + 1 mM formate), “not rescued”.

For `Cc1n[nH]c2c1C(C)(c1cccc([N+](=O)[O-])c1)C(C#N)=C(N)O2` (stereo not shown) [GD-07], the negative logarithm of the IC50 (pIC50) in data set [3] (read-out: SHMT2 IC50, Table 3) is under 5.30.

In data set [1], `Cc1n[nH]c2c1C(c1cc(C#N)cc(C#CCCCO)c1)(C(C)C)C(C#N)=C(N)O2` (stereo not shown) [Compound 71] showed a pIC50 of 5.30. Further, the values for the microsomal CLint at 2 μM in [6] (setting [13]) and in data set [6] (setting [14]) were 285 µL/min/mg and 203 µL/min/mg, respectively. Besides, the “% formate rescue” value in [2] is 97.81%.

Take `Cc1n[nH]c2c1C(c1cc(C#CCCC(=O)NC(C)(C)C(=O)O)cc(C(F)(F)F)c1)(C(C)C)C(C#N)=C(N)O2` (stereo not shown) [Compound 72]: the logP in data set [4] worked out at 3.38. Besides, the pIC50 in data set [1] was 3.70. Further, the “% formate rescue” value in data set [2] turned out to be 98.35%.

Compound `COC(=O)CCC#Cc1cc(C(F)(F)F)cc(C2(C(C)C)C(C#N)=C(N)Oc3[nH]nc(C)c32)c1` (stereo not shown) [Compound 73] gave a logP in data set [4] of 4.17. In data set [1], this compound had a pIC50 of 4.95. In addition, the “% formate rescue” value in data set [2] came to 97.33%.

Turning to `Cc1n[nH]c2c1C(c1cc(C#CCCCO)cc(C(F)(F)F)c1)(C(C)C)C(C#N)=C(N)O2` (stereo not drawn) [1 (enantiomeric ally active peak)], the pIC50 in [1] was 5.87. Besides, in data set [2], the “% formate rescue” value came to 94.96%.

For the compound `Cc1n[nH]c2c1C(c1cc(C#CCCC(N)=O)cc(C(F)(F)F)c1)(C(C)C)C(C#N)=C(N)O2` (stereo not shown) [Compound 11], the pIC50 in data set [1] was 5.22. The microsomal CLint at 2 μM was determined as 764 µL/min/mg in data set [6] (setting [13]) and 541 µL/min/mg in data set [6] (setting [14]). The “% formate rescue” value in data set [2] is reported as 96.98%.

Consider `Cc1n[nH]c2c1C(c1cc(C#CCCC(=O)N[C@@H](CCC(=O)O)C(=O)O)cc(C(F)(F)F)c1)(C(C)C)C(C#N)=C(N)O2` (stereo partly shown) [Compound 69], for which, in data set [1], the pIC50 is 4.00. Besides, the “% formate rescue” value in data set [2] turned out to be 96.41%.

With `Cc1n[nH]c2c1C(c1cc(C#CCCCO)cc(C(F)(F)F)c1)(C(C)C)C(C#N)=C(N)O2` (stereo not shown) [Compound 1], the logP in [4] is 3.91. Moreover, the microsomal CLint at 2 μM in [6] (setting [13]) is 597 µL/min/mg; in data set [6] (setting [14]), 776 µL/min/mg.

Consider `COc1cccc(C2(C3CCC3)C(C#N)=C(N)Oc3[nH]nc(C)c32)c1` (stereo not shown) [HK-2], for which the pIC50 in data set [3] (read-out: SHMT2 IC50, Table 3) is under 5.30; in data set [9], under 5.30.

Regarding `Cc1n[nH]c2c1C(c1cc(CO)cc(-c3ccccc3)c1)(C(C)C)C(C#N)=C(N)O2` (stereo not shown) [HK-X2], the “apoptotic fraction of cells” value in data set [10] (inhibitor alone, untreated 2%) is 8%; in [10] (inhibitor in the presence of formate), 15%. In addition, the 80% effect level in data set [7] (FIG. 12C legend) (IC80) was put at 2.5 µM. In data set [11], this compound had a concentration for an effect of 70% (IC70) of 5 µM. Besides, the “concentrations that impair cell growth” value in data set [12] is under 100 nM.

As to `Cc1n[nH]c2c1C(c1cc(C#CCCO)cc(C(F)(F)F)c1)(C(C)C)C(C#N)=C(N)O2` (stereo not shown) [Compound 2], the lipophilicity (logP) in data set [4] worked out at 3.46. Further, the pIC50 in [1] is 5.16. The “% formate rescue” value in data set [2] amounted to 100.58%.

Take `Cc1n[nH]c2c1C(c1cc(C#CCCCO)cc(CO)c1)(C(C)C)C(C#N)=C(N)O2` (stereo not shown) [Compound 74]: the microsomal CLint at 2 μM in data set [6] (setting [13]) and in [6] (setting [14]) was 68 µL/min/mg in each case.
